For one assay, the target named is T1, human ARG2 (arginase 2) (Homo sapiens, UniProt P78540).
T1 sequence (P78540 23-354): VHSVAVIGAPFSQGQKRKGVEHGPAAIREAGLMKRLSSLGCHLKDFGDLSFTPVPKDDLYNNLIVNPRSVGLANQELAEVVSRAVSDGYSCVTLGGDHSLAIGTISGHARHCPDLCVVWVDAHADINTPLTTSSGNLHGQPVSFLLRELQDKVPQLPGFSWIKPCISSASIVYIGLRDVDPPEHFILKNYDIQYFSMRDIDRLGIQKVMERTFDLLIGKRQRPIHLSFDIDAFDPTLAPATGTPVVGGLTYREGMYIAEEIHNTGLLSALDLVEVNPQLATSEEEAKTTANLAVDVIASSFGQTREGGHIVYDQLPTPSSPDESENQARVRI
Description: enzymatic arginase inhibition assay (data not shown). The class given is biochemical.

In the next assay the target is T2, human ARG1 (arginase 1) (Homo sapiens, UniProt P05089).
T2 sequence (P05089 1-322): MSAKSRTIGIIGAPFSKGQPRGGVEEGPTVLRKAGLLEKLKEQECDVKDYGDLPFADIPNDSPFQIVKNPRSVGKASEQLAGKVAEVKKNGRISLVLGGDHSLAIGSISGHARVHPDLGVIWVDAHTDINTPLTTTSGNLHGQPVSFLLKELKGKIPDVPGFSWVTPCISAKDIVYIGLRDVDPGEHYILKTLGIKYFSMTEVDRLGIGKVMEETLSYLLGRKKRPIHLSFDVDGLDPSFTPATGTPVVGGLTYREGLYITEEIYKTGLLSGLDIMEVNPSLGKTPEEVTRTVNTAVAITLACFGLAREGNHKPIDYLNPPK
The description is as above. The class given is biochemical.

In the case of `N[C@](CCCCB(O)O)(CCN1CCCCC1)C(=O)O` [compound 9, (R)-2-amino-6-borono-2-(2-(piperidin-1-yl)ethyl) hexanoic acid], the IC50 against human ARG2 (arginase 2) was 2.7 µM; against human ARG1 (arginase 1), 1.1 µM.

The values are drawn from article PMC6366094, “Suppression of Myeloid Cell Arginase Activity leads to Therapeutic Response in a NSCLC Mouse Model by Activating Anti-Tumor Immunity” (Journal for Immunotherapy of Cancer, 2019).
